Measured values published in ChEMBL document CHEMBL3112488, “Discovery of C-(1-aryl-cyclohexyl)-methylamines as selective, orally available inhibitors of dipeptidyl peptidase IV” (Bioorg Med Chem Lett, 2014).
Values belong to the compound of their own block, whether it stands above or below them.

Experiments:
[1] = molecular target: Dipeptidyl peptidase 9 (Homo sapiens, UniProt Q86TI2); test: Inhibition of human recombinant DPP9
[2] = Tmax in rat at 3 mg/kg, po administered in 10% PEG300/90% PBS; type: ADME, organism-based; set-up: dose 3 mg/kg, route oral; conditions: in vivo
[3] = Volume of distribution at steady state in rat at 1 mg/kg, iv administered in 10% PEG300/90% PBS; type: ADME, organism-based; set-up: dose 1 mg/kg, route intravenous; conditions: in vivo, read-out: Vdss
[4] = molecular target: Voltage-gated inwardly rectifying potassium channel KCNH2 (Homo sapiens, UniProt Q12809); test: Inhibition of human ERG by dofetilide binding assay
Voltage-gated inwardly rectifying potassium channel KCNH2, sequence (Q12809 whole entry): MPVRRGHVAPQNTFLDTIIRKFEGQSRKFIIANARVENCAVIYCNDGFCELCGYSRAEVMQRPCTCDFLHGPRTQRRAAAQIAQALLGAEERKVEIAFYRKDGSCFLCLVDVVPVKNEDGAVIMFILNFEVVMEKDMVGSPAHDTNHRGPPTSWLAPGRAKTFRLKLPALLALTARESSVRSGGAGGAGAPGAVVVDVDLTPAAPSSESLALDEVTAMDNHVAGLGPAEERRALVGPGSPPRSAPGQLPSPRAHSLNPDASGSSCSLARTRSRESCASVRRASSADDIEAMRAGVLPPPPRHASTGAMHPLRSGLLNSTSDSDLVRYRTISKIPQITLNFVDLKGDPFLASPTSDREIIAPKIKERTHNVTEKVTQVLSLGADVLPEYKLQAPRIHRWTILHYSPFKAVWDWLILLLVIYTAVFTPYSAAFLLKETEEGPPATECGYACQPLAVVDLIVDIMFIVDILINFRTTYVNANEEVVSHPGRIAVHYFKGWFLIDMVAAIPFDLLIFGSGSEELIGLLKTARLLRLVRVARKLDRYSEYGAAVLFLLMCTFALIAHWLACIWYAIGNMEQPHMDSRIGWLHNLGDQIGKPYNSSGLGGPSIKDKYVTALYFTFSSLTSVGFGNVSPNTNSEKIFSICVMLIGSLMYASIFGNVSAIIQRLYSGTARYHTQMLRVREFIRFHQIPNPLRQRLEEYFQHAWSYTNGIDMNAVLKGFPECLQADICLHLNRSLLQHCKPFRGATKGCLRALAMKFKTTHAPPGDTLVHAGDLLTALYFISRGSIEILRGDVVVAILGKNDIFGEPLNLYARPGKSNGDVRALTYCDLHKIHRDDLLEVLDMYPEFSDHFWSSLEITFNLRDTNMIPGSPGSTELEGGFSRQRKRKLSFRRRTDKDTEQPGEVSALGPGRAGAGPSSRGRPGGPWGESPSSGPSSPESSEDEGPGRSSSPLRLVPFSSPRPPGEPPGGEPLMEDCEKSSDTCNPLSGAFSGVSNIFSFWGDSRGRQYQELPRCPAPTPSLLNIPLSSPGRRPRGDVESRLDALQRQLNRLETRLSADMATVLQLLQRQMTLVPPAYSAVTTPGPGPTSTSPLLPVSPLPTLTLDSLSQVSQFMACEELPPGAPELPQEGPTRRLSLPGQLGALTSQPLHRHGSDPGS

[5] = molecular target: Cytochrome P450 2D6 (Homo sapiens, UniProt P10635); test: Inhibition of CYP2D6 (unknown origin); type: ADME
Cytochrome P450 2D6, sequence (P10635 whole entry): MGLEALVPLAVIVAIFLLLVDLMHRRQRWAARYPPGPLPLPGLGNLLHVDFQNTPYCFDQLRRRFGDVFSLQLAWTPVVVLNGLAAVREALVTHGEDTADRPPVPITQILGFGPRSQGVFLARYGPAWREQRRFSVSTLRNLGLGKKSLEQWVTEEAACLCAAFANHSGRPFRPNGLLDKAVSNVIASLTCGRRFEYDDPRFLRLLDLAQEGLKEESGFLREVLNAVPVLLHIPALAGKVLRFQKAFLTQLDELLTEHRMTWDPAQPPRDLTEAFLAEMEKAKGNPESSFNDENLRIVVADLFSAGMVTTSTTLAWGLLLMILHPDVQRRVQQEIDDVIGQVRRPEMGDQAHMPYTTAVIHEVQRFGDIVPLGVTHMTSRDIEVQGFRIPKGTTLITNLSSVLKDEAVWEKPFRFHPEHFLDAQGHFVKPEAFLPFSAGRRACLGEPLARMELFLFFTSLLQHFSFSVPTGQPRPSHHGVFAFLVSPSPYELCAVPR

[6] = Intrinsic clearance in rat liver microsomes; type: ADME
[7] = AUC (0 to 8 hrs) in rat at 3 mg/kg, po administered in 10% PEG300/90% PBS; type: ADME, organism-based; set-up: time < 8 hr, dose 3 mg/kg, route oral; conditions: plasma
[8] = organism: Rattus norvegicus; test: animal or person; conditions: Sprague-Dawley, Plasma, po, 8 h, read-out: INH
[9] = Clearance in rat at 1 mg/kg, iv administered in 10% PEG300/90% PBS; type: ADME, organism-based; set-up: dose 1 mg/kg, route intravenous; conditions: in vivo
[10] = Cmax in rat at 3 mg/kg, po administered in 10% PEG300/90% PBS; type: ADME, organism-based; set-up: dose 3 mg/kg, route oral; conditions: in vivo
[11] = molecular target: Dipeptidyl peptidase 8 (Homo sapiens, UniProt Q6V1X1); test: Inhibition of human recombinant DPP8
Dipeptidyl peptidase 8, sequence (Q6V1X1 whole entry): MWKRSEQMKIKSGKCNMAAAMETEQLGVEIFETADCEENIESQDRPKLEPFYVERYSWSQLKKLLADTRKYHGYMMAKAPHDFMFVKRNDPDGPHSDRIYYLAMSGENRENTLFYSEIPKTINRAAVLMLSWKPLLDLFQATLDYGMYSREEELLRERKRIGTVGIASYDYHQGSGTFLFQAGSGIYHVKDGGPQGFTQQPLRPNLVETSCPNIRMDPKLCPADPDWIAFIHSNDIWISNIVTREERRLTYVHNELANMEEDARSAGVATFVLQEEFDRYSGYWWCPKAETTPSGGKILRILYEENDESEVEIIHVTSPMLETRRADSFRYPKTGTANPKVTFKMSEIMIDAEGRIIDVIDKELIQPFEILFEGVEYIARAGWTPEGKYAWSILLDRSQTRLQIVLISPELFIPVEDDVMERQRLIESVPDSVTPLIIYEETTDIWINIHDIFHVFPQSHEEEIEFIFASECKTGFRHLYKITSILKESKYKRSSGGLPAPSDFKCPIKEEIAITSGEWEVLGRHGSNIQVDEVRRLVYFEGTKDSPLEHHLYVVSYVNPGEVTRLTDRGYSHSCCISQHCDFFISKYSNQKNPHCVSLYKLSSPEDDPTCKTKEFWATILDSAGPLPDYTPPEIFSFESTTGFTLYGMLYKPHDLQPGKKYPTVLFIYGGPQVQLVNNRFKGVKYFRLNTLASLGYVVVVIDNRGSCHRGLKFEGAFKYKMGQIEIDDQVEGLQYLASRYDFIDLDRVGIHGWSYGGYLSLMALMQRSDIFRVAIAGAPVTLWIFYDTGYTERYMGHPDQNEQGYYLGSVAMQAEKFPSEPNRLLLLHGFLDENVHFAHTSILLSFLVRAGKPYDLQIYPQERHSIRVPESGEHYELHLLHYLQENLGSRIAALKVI

[12] = Permeability from basolateral to apical side in human Caco2 cells; type: ADME, cell-based; conditions: Caco-2, read-out: permeability
[13] = organism: Rattus norvegicus; test: animal or person; conditions: Sprague-Dawley, Plasma, po, 0.5 h, read-out: INH
[14] = Oral bioavailability in rat at 3 mg/kg administered in 10% PEG300/90% PBS; type: ADME, organism-based; conditions: in vivo
[15] = Permeability from apical to basolateral side in human Caco2 cells; type: ADME, cell-based; conditions: Caco-2, read-out: permeability
[16] = Half life in rat at 1 mg/kg, iv administered in 10% PEG300/90% PBS; type: ADME, organism-based; set-up: dose 1 mg/kg, route intravenous; conditions: in vivo
[17] = Half life in rat at 1 mg/kg, iv administered in PBS buffer at pH 6.8; type: ADME, organism-based; set-up: dose 1 mg/kg, route intravenous; conditions: in vivo
[18] = AUC (0 to 8 hrs) in rat at 3 mg/kg, po administered in PBS buffer at pH 6.8; type: ADME, organism-based; set-up: time < 8 hr, dose 3 mg/kg, route oral; conditions: plasma
[19] = Clearance in rat at 1 mg/kg, iv administered in PBS buffer at pH 6.8; type: ADME, organism-based; set-up: dose 1 mg/kg, route intravenous; conditions: in vivo
[20] = Tmax in rat at 3 mg/kg, po administered in PBS buffer at pH 6.8; type: ADME, organism-based; set-up: dose 3 mg/kg, route oral; conditions: in vivo
[21] = Volume of distribution at steady state in rat at 1 mg/kg, iv administered in PBS buffer at pH 6.8; type: ADME, organism-based; set-up: dose 1 mg/kg, route intravenous; conditions: in vivo, read-out: Vdss
[22] = Oral bioavailability in rat at 3 mg/kg administered in PBS buffer at pH 6.8; type: ADME, organism-based; conditions: in vivo
[23] = Cmax in rat at 3 mg/kg, po administered in PBS buffer at pH 6.8; type: ADME, organism-based; set-up: dose 3 mg/kg, route oral; conditions: in vivo
[24] = Cmax in rat at 3 mg/kg, po administered in sodium acetate buffer at pH 4.63; type: ADME, organism-based; set-up: dose 3 mg/kg, route oral; conditions: in vivo
[25] = Half life in rat at 1 mg/kg, iv administered in sodium acetate buffer at pH 4.63; type: ADME, organism-based; set-up: dose 1 mg/kg, route intravenous; conditions: in vivo
[26] = Volume of distribution at steady state in rat at 1 mg/kg, iv administered in sodium acetate buffer at pH 4.63; type: ADME, organism-based; set-up: dose 1 mg/kg, route intravenous; conditions: in vivo, read-out: Vdss
[27] = Clearance in rat at 1 mg/kg, iv administered in sodium acetate buffer at pH 4.63; type: ADME, organism-based; set-up: dose 1 mg/kg, route intravenous; conditions: in vivo
[28] = Oral bioavailability in rat at 3 mg/kg administered in sodium acetate buffer at pH 4.63; type: ADME, organism-based; conditions: in vivo
[29] = Tmax in rat at 3 mg/kg, po administered in sodium acetate buffer at pH 4.63; type: ADME, organism-based; set-up: dose 3 mg/kg, route oral; conditions: in vivo
[30] = AUC (0 to 8 hrs) in rat at 3 mg/kg, po administered in sodium acetate buffer at pH 4.63; type: ADME, organism-based; set-up: time < 8 hr, dose 3 mg/kg, route oral; conditions: plasma
[31] = organism: Rattus norvegicus; test: animal or person; conditions: Sprague-Dawley, Plasma, po, read-out: INH

Dipeptidyl peptidase 9, sequence (Q86TI2 whole entry): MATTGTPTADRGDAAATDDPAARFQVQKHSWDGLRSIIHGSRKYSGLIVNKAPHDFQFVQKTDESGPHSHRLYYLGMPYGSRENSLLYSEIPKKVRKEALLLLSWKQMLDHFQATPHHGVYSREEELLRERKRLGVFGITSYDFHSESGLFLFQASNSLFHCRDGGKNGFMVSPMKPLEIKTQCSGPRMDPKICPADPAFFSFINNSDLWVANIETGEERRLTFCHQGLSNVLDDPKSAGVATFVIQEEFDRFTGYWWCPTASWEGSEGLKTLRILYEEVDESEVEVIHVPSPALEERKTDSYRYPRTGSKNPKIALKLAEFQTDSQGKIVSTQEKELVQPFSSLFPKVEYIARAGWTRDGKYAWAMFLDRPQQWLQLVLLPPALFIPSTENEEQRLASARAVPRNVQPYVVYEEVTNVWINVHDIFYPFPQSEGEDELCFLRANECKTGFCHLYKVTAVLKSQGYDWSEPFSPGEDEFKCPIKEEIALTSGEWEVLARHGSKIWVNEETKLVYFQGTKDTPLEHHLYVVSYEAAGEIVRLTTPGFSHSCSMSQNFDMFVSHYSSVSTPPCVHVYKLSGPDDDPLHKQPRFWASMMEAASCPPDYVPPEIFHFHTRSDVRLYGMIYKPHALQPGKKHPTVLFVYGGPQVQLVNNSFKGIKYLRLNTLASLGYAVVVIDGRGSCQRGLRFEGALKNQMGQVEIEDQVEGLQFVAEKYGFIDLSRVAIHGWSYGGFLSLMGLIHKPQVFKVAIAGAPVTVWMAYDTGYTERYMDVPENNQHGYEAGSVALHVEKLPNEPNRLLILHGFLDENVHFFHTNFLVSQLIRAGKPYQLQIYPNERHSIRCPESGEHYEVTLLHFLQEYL

Compound: NC[C@]1(c2cccc(Cl)c2)CC[C@H](n2nc(-c3cccnc3)ccc2=O)CC1
Tmax [2]: 1.8 h | Vd [3]: 3.9 L/kg | IC50 [4]: 4.4 µM | IC50 [1]: > 30 µM | IC50 [5]: > 10 µM | CLint [6]: 51.1 µL/min/mg | AUC(0-t) at 8 h [7]: 4.01 µM·h | inhibition in vivo at 3 mg/kg [8]: 80% | clearance [9]: 29 mL/min/kg | Cmax [10]: 921 nM | IC50 [11]: > 30 µM | Papp B→A [12]: 13 ×10⁻⁶ cm/s | inhibition in vivo at 3 mg/kg [13]: 91% | bioavailability [14]: 92% | Papp A→B [15]: 8.6 ×10⁻⁶ cm/s | half-life [16]: 2.2 h

Compound: NC[C@]1(c2cccc(Cl)c2)CC[C@H](N2CCn3c(nnc3C(F)(F)F)C2=O)CC1
IC50 [4]: > 30 µM | half-life [17]: 2.7 h | IC50 [5]: 4.5 µM | CLint [6]: 21.9 µL/min/mg | AUC(0-t) at 8 h [18]: 0.214 µM·h | clearance [19]: 69 mL/min/kg | Papp B→A [12]: 4.8 ×10⁻⁶ cm/s | Tmax [20]: 3.3 h | Vd [21]: 11.7 L/kg | bioavailability [22]: 17% | Papp A→B [15]: 1.6 ×10⁻⁶ cm/s | Cmax [23]: 57.8 nM

Compound: NC[C@]1(c2cccc(Cl)c2)CC[C@H](N2CCc3c(nc(C(F)(F)F)nc3C3CC3)C2)CC1
IC50 [1]: > 30 µM | IC50 [11]: > 30 µM

Compound: N[C@@H](CC(=O)N1CCn2c(nnc2C(F)(F)F)C1)Cc1cc(F)c(F)cc1F [SITAGLIPTIN]
inhibition in vivo at 3 mg/kg [31]: 82% | inhibition in vivo at 3 mg/kg [8]: 30%

The next lines start with results.

IC50 [1]: > 30 µM
Compound: Cc1ccc(=O)n([C@H]2CC[C@](CN)(c3cccc(Cl)c3)CC2)n1

Cmax [24]: 1900 nM | half-life [25]: 2.3 h | Vd [26]: 2.1 L/kg | IC50 [5]: 10 µM | CLint [6]: 43.4 µL/min/mg | clearance [27]: 9.5 mL/min/kg | bioavailability [28]: 78% | Papp B→A [12]: 11 ×10⁻⁶ cm/s | Papp A→B [15]: 4.4 ×10⁻⁶ cm/s | Tmax [29]: 3.3 h | AUC(0-t) at 8 h [30]: 7.91 µM·h
Compound: NC[C@]1(c2cccc(Cl)c2)CC[C@H](N2CCc3c(nc(C(F)(F)F)nc3C3CC3)C2=O)CC1
IC50 [4]: 0.26 µM

IC50 [1]: 30 µM
Compound: NC[C@]1(c2cccc(Cl)c2)CC[C@H](N2CCn3c(nnc3C(F)(F)F)C2)CC1
